pIC50: −log10 of the molar value.
Molecular target: T1, human PAR-2 (hPAR-2) receptor expressed in HEK-293 T cells in an endogenous manner (Homo sapiens, UniProt P55085)
T1 construct: human PAR-2 (hPAR-2) receptor expressed in HEK-293 T cells in an endogenous manner; endogenous in cells; host or cells: HEK-293 T cells
T1 sequence (P55085 26-397): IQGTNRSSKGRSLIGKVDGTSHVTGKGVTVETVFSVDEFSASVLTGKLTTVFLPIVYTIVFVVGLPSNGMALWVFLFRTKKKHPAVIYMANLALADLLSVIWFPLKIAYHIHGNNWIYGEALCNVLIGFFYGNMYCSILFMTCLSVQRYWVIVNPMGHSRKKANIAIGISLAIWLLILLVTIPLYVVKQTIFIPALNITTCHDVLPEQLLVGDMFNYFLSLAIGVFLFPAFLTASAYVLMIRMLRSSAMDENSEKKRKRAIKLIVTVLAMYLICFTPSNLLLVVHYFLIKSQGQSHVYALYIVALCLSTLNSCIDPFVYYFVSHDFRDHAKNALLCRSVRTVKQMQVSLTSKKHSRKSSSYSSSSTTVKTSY
Assay: In vitro human PAR-2 functional antagonist activity using calcium assays (Fluo4AM, FLIPR Tetra)
Type: cell-based
Settings: HEK-293 T cells stimulated by an EC80 of the 2-Furoyl-LIGRLO-NH2 peptide after 10 min incubation with compound; 20 concentrations, duplicate, two independent experiments
Outline: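 Fluo4AM-loaded HEK-293 T cells were exposed to compound for 10 min to read agonist effect. They were then stimulated with an EC80 of 2-Furoyl-LIGRLO-NH2 and intracellular calcium was recorded for 5 more min on FLIPR. Antagonism was scored against buffer basal and EC80 agonist-alone signals.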

Row | pIC50 | SMILES
1 | 5.00 to 7.70 | Cc1nc(Cn2cc(-c3ccc(Cl)c(F)c3)c3ccc(C(=O)N4CCN(c5cc(C)c(C(=O)O)c(C)n5)CC4(C)C)nc32)c(C)o1 [Example 159, 6-(4-(3-(4-chloro-3-fluorophenyl)-1-((2,5-dimethyloxazol-4-yl)methyl)-1H-pyrrolo[2,3-b]pyridine-6-carbonyl)-3,3-dimethylpiperazin-1-yl)-2,4-dimethylnicotinic acid]
2 | > 7.70 | Cc1cc(N2CCN(C(=O)c3ccc4c(-c5ccc(Cl)c(F)c5)cn(CC5CC5)c4n3)C(C)(C)C2)nc(C)c1C(=O)O [Example 160, 6-(4-(3-(4-chloro-3-fluorophenyl)-1-(cyclopropylmethyl)-1H-pyrrolo[2,3-b]pyridine-6-carbonyl)-3,3-dimethylpiperazin-1-yl)-2,4-dimethylnicotinic acid]
3 | > 7.70 | COc1cccc(Cn2cc(-c3ccc(Cl)c(F)c3)c3ccc(C(=O)N4CCN(c5cc(C)c(C(=O)O)c(C)n5)CC4(C)C)nc32)n1 [Example 161, 6-(4-(3-(4-chloro-3-fluorophenyl)-1-((6-methoxypyridin-2-yl)methyl)-1H-pyrrolo[2,3-b]pyridine-6-carbonyl)-3,3-dimethylpiperazin-1-yl)-2,4-dimethylnicotinic acid]
4 | 5.00 to 7.70 | CC(C)(C)n1cc(-c2ccc(Cl)c(F)c2)c2ccc(C(=O)N3CCC(C(=O)O)CC3)nc21 [Example 162, 1-(1-(tert-butyl)-3-(4-chloro-3-fluorophenyl)-1H-pyrrolo[2,3-b]pyridine-6-carbonyl)piperidine-4-carboxylic acid]
5 | 5.00 to 7.70 | CC(C)(C)n1cc(-c2ccc(Cl)c(F)c2)c2ccc(C(=O)N3CCC(CC(N)=O)CC3)nc21 [Example 163, 2-(1-(1-(tert-butyl)-3-(4-chloro-3-fluorophenyl)-1H-pyrrolo[2,3-b]pyridine-6-carbonyl)piperidin-4-yl)acetamide]
6 | 5.00 to 7.70 | CN(C)C(=O)CC1CCN(C(=O)c2ccc3c(-c4ccc(Cl)c(F)c4)cn(C(C)(C)C)c3n2)CC1 [Example 164, 2-(1-(1-(tert-butyl)-3-(4-chloro-3-fluorophenyl)-1H-pyrrolo[2,3-b]pyridine-6-carbonyl)piperidin-4-yl)-N,N-dimethylacetamide]
7 | > 7.70 | CC[C@@H](C)n1cc(-c2ccc(Cl)c(F)c2)c2ccc(C(=O)N3CCN(c4cc(C)c(C(=O)O)c(C)n4)CC3(C)C)nc21 [Example 165, (R)-6-(4-(1-(sec-butyl)-3-(4-chloro-3-fluorophenyl)-1H-pyrrolo[2,3-b]pyridine-6-carbonyl)-3,3-dimethylpiperazin-1-yl)-2,4-dimethylnicotinic acid]
8 | > 7.70 | COCC(COC)n1cc(-c2ccc(Cl)c(F)c2)c2ccc(C(=O)N3CCN(c4cc(C)c(C(=O)O)c(C)n4)CC3(C)C)nc21 [Example 166, 6-(4-(3-(4-chloro-3-fluorophenyl)-1-(1,3-dimethoxypropan-2-yl)-1H-pyrrolo[2,3-b]pyridine-6-carbonyl)-3,3-dimethylpiperazin-1-yl)-2,4-dimethylnicotinic acid]
9 | 5.00 to 7.70 | Cc1cc(C2=CCN(C(=O)c3ccc4c(-c5ccc(Cl)c(F)c5)cn(C(C)(C)C)c4n3)CC2)nc(C)c1C(=O)O [Example 167, 1′-(1-(tert-butyl)-3-(4-chloro-3-fluorophenyl)-1H-pyrrolo[2,3-b]pyridine-6-carbonyl)-4,6-dimethyl-1′,2′,3′,6′-tetrahydro-[2,4′-bipyridine]-5-carboxylic acid]
10 | 5.00 to 7.70 | Cc1cc(C2CCN(C(=O)c3ccc4c(-c5ccc(Cl)c(F)c5)cn(C(C)(C)C)c4n3)CC2)nc(C)c1C(=O)O [Example 168, 6-(1-(1-(tert-butyl)-3-(4-chloro-3-fluorophenyl)-1H-pyrrolo[2,3-b]pyridine-6-carbonyl)piperidin-4-yl)-2,4-dimethylnicotinic acid]
11 | 5.00 to 7.70 | CC1(C)CN(C(=O)c2ccc(C(=O)O)cn2)CCN1C(=O)c1ccc2c(-c3ccc(Cl)c(F)c3)cn(C(C)(C)C)c2n1 [Example 169, 6-(4-(1-(tert-butyl)-3-(4-chloro-3-fluorophenyl)-1H-pyrrolo[2,3-b]pyridine-6-carbonyl)-3,3-dimethylpiperazine-1-carbonyl)nicotinic acid]
